Measured values from patent US12655116B2, “Substituted isophthalic acid diamides” (Bayer Aktiengesellschaft, priority 2020, dated 2026).

What was measured:
ABUTH [1] = assay: Pre-emergence herbicidal action against ABUTH; assay type: in vivo, Abutilon theophrasti; details: Abutilon theophrasti, 504 h
How it was run: (§1)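 Visual rating at 3 weeks vs untreated pots; 0–100% scale, 100% = plants died. Treatment: aqueous WP/EC spray onto covering soil, 600–800 l/ha, 0.2% wetter, seeds in sandy loam.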

ALOMY [2] = assay: Pre-emergence herbicidal action against ALOMY; assay type: in vivo, Alopecurus myosuroides; details: Alopecurus myosuroides, pre-emergence, 504 h; 320 g/ha; scored visually after 3 weeks, 100% = plants have died, 0% = like control plants
How it was run: as §1

AMARE [3] = assay: Pre-emergence herbicidal action against AMARE; assay type: in vivo, Amaranthus retroflexus; details: Amaranthus retroflexus, 504 h, 100% = plants have died, 0% = like control plants
How it was run: as §1

AVEFA [4] = assay: Pre-emergence herbicidal action against AVEFA; assay type: in vivo, Avena fatua; details: Avena fatua, pre-emergence, 504 h; 320 g/ha; scored visually after 3 weeks, 100% = plants have died, 0% = like control plants
How it was run: as §1

CYPES [5] = assay: Pre-emergence herbicidal action against CYPES; assay type: in vivo; details: Cyperus esculentus, 504 h
Text: Seeds of monocotyledonous and dicotyledonous weed plants and crop plants are laid out in sandy loam soil in wood-fiber pots and covered with soil. The compounds of the invention, formulated in the form of wettable powders (WP) or as emulsion concentrates (EC), are then applied to the surface of the covering soil in the form of an aqueous suspension or emulsion at a water application rate equivalent to 600 to 800 l/ha, with addition of 0.2% wetting agent. After the treatment, the pots are placed in a greenhouse and kept under good growth conditions for the trial plants. The damage to the test plants is scored visually after a test period of 3 weeks by comparison with untreated controls (herbicidal activity in percent (%): 100% activity=the plants have died, 0% activity=like control plants). […] The tables below illustrate, in an illustrative manner, the post-emergence herbicidal action of the compounds of the invention, the herbicidal activity being stated in percent.

ECHCG [6] = assay: Pre-emergence herbicidal action against ECHCG; assay type: in vivo, Echinochloa crus-galli; details: Echinochloa crus-galli, 504 h, 320 g/ha
How it was run: as §1

HORMU [7] = assay: Pre-emergence herbicidal action against HORMU; assay type: in vivo, Hordeum murinum; details: Hordeum murinum, 504 h; 320 g/ha, pre-emergence
How it was run: as §1

MATIN = assay: Pre-emergence herbicidal action against MATIN; assay type: in vivo, Matricaria inodora; details: Tripleurospermum inodorum, 504 h, dosage 320 g/ha
How it was run: as §1

SETVI [8] = assay: Pre-emergence herbicidal action against SETVI; assay type: in vivo, Setaria viridis; details: Setaria viridis, 504 h, dosage 320 g/ha
How it was run: as §1

STEME [9] = assay: Pre-emergence herbicidal action against STEME; assay type: in vivo, Stellaria media; details: Stellaria media, 504 h, dosage 320 g/ha
How it was run: as §1

VERPE [10] = assay: Pre-emergence herbicidal action against VERPE; assay type: in vivo, Veronica persica; details: Veronica persica, 504 h, dosage 320 g/ha
How it was run: as §1

VIOTR [11] = assay: Pre-emergence herbicidal action against VIOTR; assay type: in vivo, Viola tricolor; details: Viola tricolor, 504 h, dosage 320 g/ha
How it was run: as §1

ABUTH [12] = assay: Post-emergence herbicidal action against ABUTH; assay type: in vivo, Abutilon theophrasti; details: Abutilon theophrasti, 504 h, visual assessment about 3 weeks after treatment vs untreated controls
How it was run: (§2)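 Weeds in sandy loam soil received a post-emergence spray at the one-leaf stage. Compounds were applied as WP or EC in water, 600 to 800 l/ha, with 0.2% wetting agent. Activity in % was judged visually after roughly 3 weeks against untreated plants.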

ALOMY [13] = assay: Post-emergence herbicidal action against ALOMY; assay type: in vivo, Alopecurus myosuroides; details: Alopecurus myosuroides, 504 h, dosage 80 g/ha, visual assessment about 3 weeks after treatment vs untreated controls
How it was run: as §2

AMARE [14] = assay: Post-emergence herbicidal action against AMARE; assay type: in vivo, Amaranthus retroflexus; details: Amaranthus retroflexus, 504 h, 80 g/ha, visual assessment about 3 weeks after treatment, 100% = plants have died, 0% = like control plants
How it was run: as §2

AVEFA [15] = assay: Post-emergence herbicidal action against AVEFA; assay type: in vivo, Avena fatua; details: Avena fatua, 504 h, 80 g/ha, visual assessment about 3 weeks after treatment, 100% = plants have died, 0% = like control plants
How it was run: as §2

CYPES [16] = assay: Post-emergence herbicidal action against CYPES; assay type: in vivo, Cyperus esculentus; details: 80 g/ha, visual assessment about 3 weeks after treatment, 100% = plants have died, 0% = like control plants
Method: Seeds of monocotyledonous and dicotyledonous weed and crop plants are laid out in sandy loam soil in wood-fiber pots, covered with soil and cultivated in a greenhouse under good growth conditions. 2 to 3 weeks after sowing, the test plants are treated at the one-leaf stage. The compounds of the invention, formulated in the form of wettable powders (WP) or as emulsion concentrates (EC), are then sprayed onto the green parts of the plants in the form of an aqueous suspension or emulsion at a water application rate equivalent to 600 to 800 l/ha, with addition of 0.2% wetting agent. After the test plants have been left to stand in the greenhouse under optimal growth conditions for about 3 weeks, the action of the preparations is assessed visually in comparison to untreated controls (herbicidal action in percent (%): 100% activity=the plants have died, 0% activity=like control plants). […] The tables below illustrate, in an illustrative manner, the post-emergence herbicidal action of the compounds of the invention, the herbicidal activity being stated in percent.

ECHCG [17] = assay: Post-emergence herbicidal action against ECHCG; assay type: in vivo, Echinochloa crus-galli; details: Echinochloa crus-galli, 504 h, dosage 80 g/ha
How it was run: as §2

HORMU [18] = assay: Post-emergence herbicidal action against HORMU; assay type: in vivo, Hordeum murinum; details: Hordeum murinum, 504 h, dosage 80 g/ha
How it was run: as §2

SETVI [19] = assay: Post-emergence herbicidal action against SETVI; assay type: in vivo, Setaria viridis; details: Setaria viridis, 504 h
How it was run: as §2

STEME [20] = assay: Post-emergence herbicidal action against STEME; assay type: in vivo, Stellaria media; details: Stellaria media, 504 h, 80 g/ha
How it was run: as §2

VERPE [21] = assay: Post-emergence herbicidal action against VERPE; assay type: in vivo, Veronica persica; details: Veronica persica, 504 h
How it was run: as §2

VIOTR [22] = assay: Post-emergence herbicidal action against VIOTR; assay type: in vivo, Viola tricolor; details: Viola tricolor, 504 h
How it was run: as §2

Compound: Cc1nnc(NC(=O)c2ccc(C(F)(F)F)c(C(N)=O)c2Cl)o1 [Example 6-253]
- pest or weed control at 80 g/ha (ABUTH [1]; 80 g/ha, scored visually after 3 weeks vs untreated controls (100% = plants have died, 0% = like control plants)): 90%
- pest or weed control at 320 g/ha (ABUTH [1]; Dosage: 320 g/ha, scored visually after 3 weeks, 100% = plants have died, 0% = like control plants): 100%
- pest or weed control at 320 g/ha (ALOMY [2]): 90%
- pest or weed control at 80 g/ha (AMARE [3]; 80 g/ha, scored visually after 3 weeks vs untreated controls): 80%
- pest or weed control at 320 g/ha (AMARE [3]; 320 g/ha, scored visually after 3 weeks): 90%
- pest or weed control at 320 g/ha (AVEFA [4]): 90%
- pest or weed control at 20 g/ha (CYPES [5]; 20 g/ha, scored visually after 3 weeks, 100% = plants have died, 0% = like control plants): 80%
- pest or weed control at 80 g/ha (CYPES [5]; 80 g/ha, scored visually after 3 weeks, 100% = plants have died, 0% = like control plants): 90%
- pest or weed control at 320 g/ha (CYPES [5]; 320 g/ha): 100%
- pest or weed control at 320 g/ha (ECHCG [6]): 100%
- pest or weed control at 320 g/ha (HORMU [7]): 90%
- pest or weed control at 320 g/ha (MATIN): 100%
- pest or weed control at 320 g/ha (SETVI [8]): 100%
- pest or weed control at 320 g/ha (STEME [9]): 100%
- pest or weed control at 320 g/ha (VERPE [10]): 100%
- pest or weed control at 320 g/ha (VIOTR [11]): 100%
- pest or weed control at 5 g/ha (ABUTH [12]; dosage 5 g/ha): 100%
- pest or weed control at 20 g/ha (ABUTH [12]; dosage 20 g/ha): 100%
- pest or weed control at 80 g/ha (ABUTH [12]; dosage 80 g/ha): 100%
- pest or weed control at 80 g/ha (ALOMY [13]): 80%
- pest or weed control at 80 g/ha (AMARE [14]): 100%
- pest or weed control at 80 g/ha (AVEFA [15]): 80%
- Post-emergence action at 80 g/ha against CYPES in % (CYPES [16]): 80%
- pest or weed control at 80 g/ha (ECHCG [17]): 90%
- pest or weed control at 80 g/ha (HORMU [18]): 90%
- pest or weed control at 20 g/ha (SETVI [19]; dosage 20 g/ha): 90%
- pest or weed control at 80 g/ha (SETVI [19]; dosage 80 g/ha): 100%
- pest or weed control at 80 g/ha (STEME [20]): 90%
- pest or weed control at 20 g/ha (VERPE [21]; 20 g/ha): 80%
- pest or weed control at 80 g/ha (VERPE [21]; 80 g/ha): 90%
- pest or weed control at 20 g/ha (VIOTR [22]; 20 g/ha): 80%
- pest or weed control at 80 g/ha (VIOTR [22]; 80 g/ha): 80%
